The text below walks through data of patent publication US7772180B2, “Hepatitis C virus inhibitors” (Bristol-Myers Squibb Company, priority 2006, dated 2010).

Each structure is given as a SMILES string. pEC50, pIC50: −log10 of the molar value. Read-outs that look alike come from different tables or passages of the source. Some results are limits rather than exact numbers.

Test [1] concerns HCV replicon (strain 1b) in HUH-7 cells. Briefly: HCV replicon FRET assay. The class given is cell-based, Hepatitis C virus. The conditions noted are these: activity range class. From the text: An HCV replicon whole cell system was established as described by Lohmann V, Korner F, Koch J, Herian U, Theilmann L, Bartenschlager R., Science 285(5424): 110-3 (1999). This system enabled us to evaluate the effects of our HCV Protease compounds on HCV RNA replication. Briefly, using the HCV strain 1b sequence described in the Lohmann paper (Assession number: AJ238799), an HCV cDNA was synthesized by Operon Technologies, Inc. (Alameda, Calif.), and the full-length replicon was then assembled in plasmid pGem9zf(+) (Promega, Madison, Wis.) using standard molecular biology techniques. The replicon consists of (i) the HCV 5′ UTR fused to the first 12 amino acids of the capsid protein, (ii) the neomycin phosphotransferase gene (neo), (iii) the IRES from encephalomyocarditis virus (EMCV), and (iv) HCV NS3 to NS5B genes and the HCV 3′ UTR. Plasmid DNAs were linearized with ScaI and RNA transcripts were synthesized in vitro using the T7 MegaScript transcription kit (Ambion, Austin, Tex.) according to manufacturer's directions. In vitro transcripts of the cDNA were transfected into the human hepatoma cell line, HUH-7. […] Resulting cell lines were characterized for positive and negative strand RNA production and protein production over time.
The HCV replicon FRET assay was developed to monitor the inhibitory effects of compounds described in the disclosure on HCV viral replication. HUH-7 cells, constitutively expressing the HCV replicon, were grown in Dulbecco's Modified Eagle Media (DMEM) (Gibco-BRL) containing 10% Fetal calf serum (FCS) (Sigma) and 1 mg/ml G418 (Gibco-BRL). Cells were seeded the night before (1.5×10^4 cells/well) in 96-well tissue-culture sterile plates. Compound and no compound controls were prepared in DMEM containing 4% FCS, 1:100 Penicillin/Streptomysin (Gibco-BRL), 1:100 L-glutamine and 5% DMSO in the dilution plate (0.5% DMSO final concentration in the assay). Compound/DMSO mixes were added to the cells and incubated for 4 days at 37° C. After 4 days, cells were first assessed for cytotoxicity using alamar Blue (Trek Diagnotstic Systems) for a CC50 reading. The toxicity of compound (CC50) was determined by adding 1/10th volume of alamarBlue to the media incubating the cells. After 4 hours, the fluorescence signal from each well was read, with an excitation wavelength at 530 nm and an emission wavelength of 580 nm, using the Cytofluor Series 4000 (Perspective Biosystems). Plates were then rinsed thoroughly with Phosphate-Buffered Saline (PBS) (3 times 150 μl).

The target of test [2] is T1, HCV NS3/4A protease complex, BMS strain (UniProt P27958, species not given/STRAIN_BMS).
T1 construct: other: NS3/4A BMS strain; activity range class; numeric values, unit not given; said of H77 and J4L6S; fused on or other part: A three-lysine solubilising tail at the C-terminus of NS4A; A His tag is implied by the pET21b vector and Ni-NTA purification; Both are printed for the H77 and J4L6S constructs and apply to BMS by inference
In words: FRET peptide assay to monitor HCV NS3/4A proteolytic activity (BMS strain). The class given is biochemical, Hepatitis C virus (genotype 1a). Particulars: read-out: HCV Protease (IC50); NS3/4A BMS strain; activity range class. From the text: HCV NS3 protease complexes, derived from the BMS strain, H77 strain or J4L6S strain, were generated, as described below. These purified recombinant proteins were generated for use in a homogeneous assay (see below) to provide an indication of how effective compounds of the present disclosure would be in inhibiting HCV NS3 proteolytic activity.
Serum from an HCV-infected patient was obtained from Dr. T. Wright, San Francisco Hospital. An engineered full-length cDNA (compliment deoxyribonucleic acid) template of the HCV genome (BMS strain) was constructed from DNA fragments obtained by reverse transcription-PCR (RT-PCR) of serum RNA (ribonucleic acid) and using primers selected on the basis of homology between other genotype 1a strains. From the determination of the entire genome sequence, a genotype 1a was assigned to the HCV isolate according to the classification of Simmonds et al. (See P Simmonds, K A Rose, S Graham, S W Chan, F McOmish, B C Dow, E A Follett, P L Yap and H Marsden, J. Clin. Microbiol., 31(6), 1493-1503 (1993)). […] The infectious clones, H77 (1a genotype) and J4L6S (1b genotype) were obtained from R. Purcell (NIH) and the sequences are published in Genbank (AAB67036, see Yanagi, M., Purcell, R. H., Emerson, S. U. and Bukh, J. Proc. Natl. Acad. Sci. U.S.A. 94(16), 8738-8743 (1997); AF054247, see Yanagi, M., St Claire, M., Shapiro, M., Emerson, S. U., Purcell, R. H. and Bukh, J. Virology 244 (1), 161-172. (1998)).
NS3/4A protease complex-containing fractions were pooled and loaded on a desalting column Superdex-S200 pre-equilibrated with buffer D (25 mM HEPES, pH 7.5, 20% glycerol, 300 mM NaCl, 0.2% Triton X-100, 10 mM βME). Sample was loaded at a flow rate of 1 mL/min. NS3/4A protease complex-containing fractions were pooled and concentrated to approximately 0.5 mg/ml. The purity of the NS3/4A protease complexes, derived from the BMS, H77 and J4L6S strains, were judged to be greater than 90% by SDS-PAGE and mass spectrometry analyses. The enzyme was stored at −80° C., thawed on ice and diluted prior to use in assay buffer.
The purpose of this in vitro assay was to measure the inhibition of HCV NS3 protease complexes, derived from the BMS strain, H77 strain or J4L6S strain, as described above, by compounds of the present disclosure. This assay provides an indication of how effective compounds of the present disclosure would be in inhibiting HCV NS3 proteolytic activity.
In order to monitor HCV NS3/4A protease activity, an NS3/4A peptide substrate was used. The substrate was RET S1 (Resonance Energy Transfer Depsipeptide Substrate; AnaSpec, Inc. cat #22991) (FRET peptide), described by Taliani et al. in Anal. Biochem. 240(2):60-67 (1996). The sequence of this peptide is loosely based on the NS4A/NS4B natural cleavage site for the HCV NS3 protease except there is an ester linkage rather than an amide bond at the cleavage site. The peptide also contains a fluorescence donor, EDANS, near one end of the peptide and an acceptor, DABCYL, near the other end. The fluorescence of the peptide is quenched by […] resonance energy transfer (RET) between the donor and the acceptor, but as the NS3 protease cleaves the peptide the products are released from RET quenching and the fluorescence of the donor becomes apparent.
The peptide substrate was incubated with one of the three recombinant NS3/4A protease complexes, in the absence or presence of a compound of the present disclosure. The inhibitory effects of a compound were determined by monitoring the formation of fluorescent reaction product in real time using a Cytofluor Series 4000.
Assay buffer: 50 mM HEPES, pH 7.5; 0.15 M NaCl; 0.1% Triton; 15% Glycerol; 10 mM βME. Substrate: 2 μM final concentration (from a 2 mM stock solution in DMSO stored at −20° C.). HCV NS3/4A protease type 1a (1b), 2-3 nM final concentration (from a 5 μM stock solution in 25 mM HEPES, pH 7.5, 20% glycerol, 300 mM NaCl, 0.2% Triton-X100, 10 mM βME). […]

Setting [3] is: read-out: HCV Pro Replicon (EC50), HCV replicon cell assay.
Where [4] appears, read: Hepatitis C virus, Huh-7, read-out: HCV Pro Replicon (EC50), HCV replicon cell assay.

T1 sequence (P27958 1027-1657, change not shown, one chain of several): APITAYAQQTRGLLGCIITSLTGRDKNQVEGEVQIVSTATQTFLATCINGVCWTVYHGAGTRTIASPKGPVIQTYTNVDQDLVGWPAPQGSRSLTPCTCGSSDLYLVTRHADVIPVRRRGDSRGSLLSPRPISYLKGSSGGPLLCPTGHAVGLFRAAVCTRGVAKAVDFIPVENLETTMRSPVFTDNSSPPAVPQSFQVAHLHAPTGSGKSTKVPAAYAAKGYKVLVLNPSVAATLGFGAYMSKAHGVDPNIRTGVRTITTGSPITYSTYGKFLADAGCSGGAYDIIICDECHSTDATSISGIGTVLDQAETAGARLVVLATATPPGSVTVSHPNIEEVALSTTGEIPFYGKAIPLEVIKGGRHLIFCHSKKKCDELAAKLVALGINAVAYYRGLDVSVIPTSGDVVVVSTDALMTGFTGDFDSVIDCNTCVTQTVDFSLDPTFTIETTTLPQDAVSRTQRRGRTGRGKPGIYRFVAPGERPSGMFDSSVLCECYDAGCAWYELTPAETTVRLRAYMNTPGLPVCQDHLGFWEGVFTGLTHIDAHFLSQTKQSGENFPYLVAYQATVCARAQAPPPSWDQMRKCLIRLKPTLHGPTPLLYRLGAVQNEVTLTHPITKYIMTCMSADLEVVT

For the compound `C=C[C@@H]1C[C@]1(NC(=O)[C@@H]1C[C@@H](Oc2nc(OC)cc3cc(OC)ccc23)CN1C(=O)C(Nc1ccccc1)C(C)(C)C)C(=O)NS(=O)(=O)C1CC1` (single isomer, unassigned) [20 first isomer], in test [1] (setting [3]), the pEC50 was 7.00 to 8.52. The pIC50 in test [2] was 7.70 to 9.22.

Turning to `C=C[C@@H]1C[C@]1(NC(=O)[C@@H]1C[C@@H](Oc2nc(OC)cc3cc(OC)ccc23)CN1C(=O)C(Nc1ccccc1)C(C)(C)C)C(=O)NS(=O)(=O)C1CC1` (single isomer, unassigned) [20 second isomer], the pEC50 in test [1] (setting [3]) was 6.00 to 7.00. Moreover, the negative-log IC50 (pIC50) in test [2] was 6.70 to 7.70.

In the case of `C=C[C@@H]1C[C@]1(NC(=O)[C@@H]1C[C@@H](Oc2ncc(OC)c3ccc(Cl)cc23)CN1C(=O)C(Nc1cc(C)cc(C)n1)C(C)(C)C)C(=O)NS(=O)(=O)C1CC1` (single isomer, unassigned) [22 first isomer], the pEC50 in test [1] (setting [3]) was 7.00 to 8.52. The negative logarithm of the IC50 (pIC50) in test [2] is 7.70 to 9.22.

On to `C=C[C@@H]1C[C@]1(NC(=O)[C@@H]1C[C@@H](Oc2ncc(OC)c3ccc(Cl)cc23)CN1C(=O)C(Nc1cc(C)cc(C)n1)C(C)(C)C)C(=O)NS(=O)(=O)C1CC1` (single isomer, unassigned) [22 second isomer], for which the pEC50 in test [1] (setting [3]) is 6.00 to 7.00. The pIC50 in test [2] is 7.70 to 9.22.

Consider `C=C[C@@H]1C[C@]1(NC(=O)[C@@H]1C[C@@H](Oc2ncc(OC)c3ccc(Cl)cc23)CN1C(=O)C(Nc1cncnc1)C(C)C)C(=O)NS(=O)(=O)C1CC1` (single isomer, unassigned) [24 second isomer], for which the pEC50 in test [1] (setting [4]) was under 6.00. Further, the pIC50 in test [2] is under 6.70.

Regarding `C=C[C@@H]1C[C@]1(NC(=O)[C@@H]1C[C@@H](Oc2ncc(OC)c3ccc(Cl)cc23)CN1C(=O)C(Nc1ccc(C)nc1)C(C)(C)C)C(=O)NS(=O)(=O)C1CC1` (single isomer, unassigned) [26 first isomer], in test [1] (setting [4]), the pEC50 was 7.00 to 8.52. In addition, in test [2], the pIC50 was 7.70 to 9.22.

Consider `C=C[C@@H]1C[C@]1(NC(=O)[C@@H]1C[C@@H](Oc2ncc(OC)c3ccc(Cl)cc23)CN1C(=O)C(Nc1cncc(C(F)(F)F)c1)C(C)(C)C)C(=O)NS(=O)(=O)C1CC1` (single isomer, unassigned) [27 second isomer], for which the pEC50 in test [1] (setting [4]) was 7.00 to 8.52. In addition, the pIC50 in test [2] was 6.70 to 7.70.

`C=C[C@@H]1C[C@]1(NC(=O)[C@@H]1C[C@@H](Oc2ncc(OC)c3ccc(Cl)cc23)CN1C(=O)C(Nc1cccc(C)n1)C(C)(C)C)C(=O)NS(=O)(=O)C1CC1` (single isomer, unassigned) [28 first isomer]: in test [1] (setting [3]), the pEC50 was 7.00 to 8.52. Further, in test [2], the pIC50 was 7.70 to 9.22.

As to `C=C[C@@H]1C[C@]1(NC(=O)[C@@H]1C[C@@H](Oc2ncc(OC)c3ccc(Cl)cc23)CN1C(=O)C(Nc1cccc(C)n1)C(C)(C)C)C(=O)NS(=O)(=O)C1CC1` (single isomer, unassigned) [28 second isomer], the pEC50 in test [1] (setting [3]) is 6.00 to 7.00. The pIC50 in test [2] was 6.70 to 7.70.

Consider `C=C[C@@H]1C[C@]1(NC(=O)[C@@H]1C[C@@H](Oc2nccc3cc(OC)ccc23)CN1C(=O)C(Nc1ccc(OC)nc1)C(C)(C)C)C(=O)NS(=O)(=O)C1CC1` (single isomer, unassigned) [407 first isomer], for which the pEC50 in test [1] (setting [4]) was 6.00 to 7.00. The pIC50 in test [2] was 7.70 to 9.22.

For the compound `C=C[C@@H]1C[C@]1(NC(=O)[C@@H]1C[C@@H](Oc2nccc3cc(OC)ccc23)CN1C(=O)C(Nc1ccc(OC)nc1)C(C)(C)C)C(=O)NS(=O)(=O)C1CC1` (single isomer, unassigned) [407 second isomer], the pEC50 in test [1] (setting [3]) is 6.00 to 7.00. Moreover, the pIC50 in test [2] was 7.70 to 9.22.

Regarding `C=C[C@@H]1C[C@]1(NC(=O)[C@@H]1C[C@@H](Oc2ncc(OC)c3ccc(Cl)cc23)CN1C(=O)C(Nc1ccc(OC)nc1)C(C)(C)C)C(=O)NS(=O)(=O)C1CC1` (single isomer, unassigned) [408 first isomer], in test [1] (setting [3]), the pEC50 was 7.00 to 8.52. Moreover, the pIC50 in test [2] is 7.70 to 9.22.

With `C=C[C@@H]1C[C@]1(NC(=O)[C@@H]1C[C@@H](Oc2ncc(OC)c3ccc(Cl)cc23)CN1C(=O)C(Nc1ccc(OC)nc1)C(C)(C)C)C(=O)NS(=O)(=O)C1CC1` (single isomer, unassigned) [408 second isomer], the pEC50 in test [1] (setting [3]) is 6.00 to 7.00. Also, the pIC50 in test [2] is under 6.70.
